According to patent US8202836B2, “Modified PYY (3-36) peptides and their effects on feeding behavior” (Imperial Innovations Limited, priority 2005, dated 2012):

Experiments:
Male C57BL/6 mice = assay: Food intake after intraperitoneal injection in overnight-fasted mice; type: in vivo; details: for reduction of food intake by 30 μg/kg versus a 100 μg/kg dose of PYY(3-36): dose response, peripheral injection after overnight fast
Procedure: (§1) Male C57BL/6 mice (20-30 g) were used for all mouse experiments. Male Wistar rats were used for the rat experiments. Mice or rats were individually housed in IVC cages. Animals were randomised by weight and fasted overnight for 16 hrs before intraperitoneal injection at 9 am. Food intake was measured at 1, 2, 4, 6 and 24 hours post injection. All peptide solutions were prepared freshly the morning of the study and injected as 100 μl. All statistics are calculated using the student's paired t-test.
Mice were injected with PYY(3-36) 100 μg/kg, allo_ILeu^3 PYY(3-36) 100 μg/kg, D_allo_ILeu^3 PYY(3-36) 100 μg/kg or saline (n=10/group) and food intake was measured at time intervals over 24 hours. In the Figure, significance versus saline is indicated by *=p<0.05, **=p<0.01, ***=p<0.001 paired t-test.
30 μg/kg or 100 μg/kg of PYY(3-36) or D_allo_ILeu^3 PYY(3-36) was injected after an overnight fast and food intake was measured at time intervals over a period of 24 hours. In the Figures, significance versus saline is indicated by *=p<0.05, **=p<0.01, ***=p<0.001 paired t-test.

Male Wistar rats = assay: Food intake after intraperitoneal injection in overnight-fasted rats; type: in vivo; details: for reduction of food intake by 30 μg/kg versus a 100 μg/kg dose of PYY(3-36): dose response, peripheral injection after overnight fast
Procedure: as §1
The experiment was identical to Example 2, except that Wistar rats were used instead of C57BL/6 mice. 30 μg/kg or 100 μg/kg of PYY(3-36) or D_allo_ILeu^3 PYY(3-36) was injected after an overnight fast and food intake was measured at time intervals over a period of 24 hours. In the Figures, significance versus saline is indicated by *=p<0.05, **=p<0.01, ***=p<0.001 paired t-test.

[1] = from 30 μg/kg vs 100 μg/kg comparison

For “D-allo-Ile^3 PYY3-36 [D_allo_ILeu^3 PYY(3-36)]”, the “decrease of food intake over the total period 0-4 hours versus native PYY3-36” value (Male C57BL/6 mice; 0-4 hours) was “to a greater extent”, the “cumulative food intake compared to the PYY(3-36) injected group (p, paired t-test)” value (Male C57BL/6 mice; 100 μg/kg each, 0-1 hr) was 0.0138 and the “cumulative food intake compared to the PYY(3-36) injected group (p, paired t-test)” value (Male C57BL/6 mice; 100 μg/kg each, 0-2 hr) was 0.0063. The “cumulative food intake compared to the PYY(3-36) injected group (p, paired t-test)” value (Male C57BL/6 mice; 100 μg/kg each, 0-4 hr) was 0.0003, the “cumulative food intake compared to the PYY(3-36) injected group (p, paired t-test)” value (Male C57BL/6 mice; 100 μg/kg each, 0-6 hr) was 0.0024 and the “food intake over a 24 hr period compared to the PYY(3-36) 100 μg/kg group (p, paired t-test)” value (Male C57BL/6 mice; 100 μg/kg each, 24 hr) was 0.0554. For the same substance, the “food intake compared with saline” value (Male C57BL/6 mice; 100 μg/kg intraperitoneal after overnight fast, n=10/group) was “significantly decreased food intake”, the “reduction of food intake by 30 μg/kg versus a 100 μg/kg dose of PYY(3-36)” value (“reduction of food intake” for short) (Male C57BL/6 mice) was “at least as powerful” and the “reduction of food intake” value (Male C57BL/6 mice; listed as D-allo-Ile^3 PYY3-36) was “same decrease in food intake”. For the same substance, the “superiority in efficacy over PYY(3-36)” value (Male C57BL/6 mice; [1]) was 3 fold, the “decrease of food intake over the total period 0-4 hours versus native PYY3-36” value (Male Wistar rats; 0-4 hours) was “to a greater extent” and the “reduction of food intake” value (Male Wistar rats) was “at least as powerful”. The “reduction of food intake” value (Male Wistar rats; listed as D-allo-Ile^3 PYY3-36) was “same decrease in food intake”, the “superiority in efficacy over PYY(3-36)” value (Male Wistar rats; [1]) was 3 fold and the “decrease in food intake versus the same quantity of normal human PYY3-36” value (Male Wistar rats; same quantity) was “greater decrease in food intake”.
